Test results: PubChem BioAssay (NCI)
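Following 48 hours of exposure in 96-well plates, responses at five concentrations were used to interpolate endpoints linearly. Definition used: TGI = concentration required for complete inhibition of growth.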

What was measured:
Test in all cases: NCI anticancer screen, dose series, 48 h
NCI-H23 lung = test system: NCI-H23 lung
HS 578T breast = test system: HS 578T breast
SF-539 CNS = test system: SF-539 CNS
SN12C renal = test system: SN12C renal
EKVX NSCLC = test system: EKVX NSCLC
A549 NSCLC = test system: A549 NSCLC
NCI-H460 lung = test system: NCI-H460 lung
SF-295 CNS = test system: SF-295 CNS
UACC-62 melanoma = test system: UACC-62 melanoma
CAKI-1 renal = test system: CAKI-1 renal
RPMI-8226 leukemia = test system: RPMI-8226 leukemia
SW-620 colon = test system: SW-620 colon
BT-549 breast = test system: BT-549 breast
MOLT-4 leukemia = test system: MOLT-4 leukemia
HCT-15 colon = test system: HCT-15 colon
HCC-2998 colon = test system: HCC-2998 colon
RXF 393 renal = test system: RXF 393 renal
SK-MEL-2 melanoma = test system: SK-MEL-2 melanoma
OVCAR-3 ovarian = test system: OVCAR-3 ovarian
ACHN renal = test system: ACHN renal
OVCAR-4 ovarian = test system: OVCAR-4 ovarian
SK-OV-3 ovarian = test system: SK-OV-3 ovarian
OVCAR-5 ovarian = test system: OVCAR-5 ovarian
SR leukemia = test system: SR leukemia
SNB-75 CNS = test system: SNB-75 CNS
SNB-19 CNS = test system: SNB-19 CNS
MALME-3M melanoma = test system: MALME-3M melanoma
PC-3 prostate = test system: PC-3 prostate
786-0 renal = test system: 786-0 renal
MDA-MB-435 = test system: MDA-MB-435
HT29 colon = test system: HT29 colon
OVCAR-8 ovarian = test system: OVCAR-8 ovarian
T-47D breast = test system: T-47D breast
IGROV1 ovarian = test system: IGROV1 ovarian
MDA-N = test system: MDA-N
MCF7 breast = test system: MCF7 breast
SK-MEL-28 melanoma = test system: SK-MEL-28 melanoma
LOX IMVI melanoma = test system: LOX IMVI melanoma
HOP-92 NSCLC = test system: HOP-92 NSCLC
CCRF-CEM leukemia = test system: CCRF-CEM leukemia
HL-60(TB) leukemia = test system: HL-60(TB) leukemia
M14 melanoma = test system: M14 melanoma
TK-10 renal = test system: TK-10 renal
U251 CNS = test system: U251 CNS
SK-MEL-5 melanoma = test system: SK-MEL-5 melanoma
NCI/ADR-RES ovarian = test system: NCI/ADR-RES ovarian
HCT-116 colon = test system: HCT-116 colon
COLO 205 colon = test system: COLO 205 colon
UO-31 renal = test system: UO-31 renal
NCI-H522 lung = test system: NCI-H522 lung
KM12 colon = test system: KM12 colon
DU-145 prostate = test system: DU-145 prostate
UACC-257 melanoma = test system: UACC-257 melanoma
NCI-H226 lung = test system: NCI-H226 lung
A498 renal = test system: A498 renal
MDA-MB-231 breast = test system: MDA-MB-231 breast
SF-268 CNS = test system: SF-268 CNS
K-562 leukemia = test system: K-562 leukemia

`COc1cc2c(c(OC)c1OC)-c1ccc(SC)cc1C(=O)CC2` showed a TGI (NCI-H23 lung) of over 100 µM, a TGI (HS 578T breast) of over 100 µM and a TGI (SF-539 CNS) of under 0.01 µM. For the same compound, the TGI (SN12C renal) was over 100 µM, the TGI (EKVX NSCLC) was over 100 µM and the TGI (A549 NSCLC) was over 100 µM. The TGI (NCI-H460 lung) was over 32.1 µM, the TGI (SF-295 CNS) was over 100 µM and the TGI (UACC-62 melanoma) was over 100 µM. The TGI (CAKI-1 renal) was over 100 µM, the TGI (RPMI-8226 leukemia) was over 47.7 µM and the TGI (SW-620 colon) was over 100 µM. It also gave a TGI (BT-549 breast) of over 100 µM, a TGI (MOLT-4 leukemia) of over 100 µM and a TGI (HCT-15 colon) of over 100 µM. The TGI (HCC-2998 colon) was 39.6 µM, the TGI (RXF 393 renal) was over 100 µM and the TGI (SK-MEL-2 melanoma) was over 100 µM. It also gave a TGI (OVCAR-3 ovarian) of over 100 µM, a TGI (ACHN renal) of over 100 µM and a TGI (OVCAR-4 ovarian) of over 100 µM. For the same compound, the TGI (SK-OV-3 ovarian) was under 0.01 µM, the TGI (OVCAR-5 ovarian) was over 100 µM and the TGI (SR leukemia) was over 100 µM. The TGI (SNB-75 CNS) was over 100 µM, the TGI (SNB-19 CNS) was over 100 µM and the TGI (MALME-3M melanoma) was over 21.9 µM. For the same compound, the TGI (PC-3 prostate) was over 100 µM, the TGI (786-0 renal) was over 100 µM and the TGI (MDA-MB-435) was over 100 µM. The TGI (HT29 colon) was under 0.01 µM, the TGI (OVCAR-8 ovarian) was over 100 µM and the TGI (T-47D breast) was over 100 µM. It also gave a TGI (IGROV1 ovarian) of over 100 µM, a TGI (MDA-N) of 27.2 µM and a TGI (MCF7 breast) of over 100 µM. For the same compound, the TGI (SK-MEL-28 melanoma) was over 100 µM, the TGI (LOX IMVI melanoma) was over 100 µM and the TGI (HOP-92 NSCLC) was over 100 µM. The TGI (CCRF-CEM leukemia) was over 100 µM, the TGI (HL-60(TB) leukemia) was 10.8 µM and the TGI (M14 melanoma) was over 100 µM. It also gave a TGI (TK-10 renal) of over 100 µM, a TGI (U251 CNS) of over 100 µM and a TGI (SK-MEL-5 melanoma) of over 100 µM.
Work on `CSC1=C(C(=O)Nc2ccccc2)C(N)=NC1=O` yielded a TGI (NCI-H23 lung) of over 100 µM, a TGI (HS 578T breast) of over 100 µM and a TGI (SF-539 CNS) of over 100 µM. For the same compound, the TGI (SN12C renal) was over 100 µM, the TGI (EKVX NSCLC) was over 100 µM and the TGI (NCI/ADR-RES ovarian) was over 100 µM. The TGI (A549 NSCLC) was over 100 µM, the TGI (NCI-H460 lung) was over 100 µM and the TGI (UACC-62 melanoma) was over 100 µM. It also gave a TGI (HCT-116 colon) of over 100 µM, a TGI (CAKI-1 renal) of over 100 µM and a TGI (RPMI-8226 leukemia) of over 100 µM. It also gave a TGI (SW-620 colon) of over 100 µM, a TGI (BT-549 breast) of over 100 µM and a TGI (MOLT-4 leukemia) of over 100 µM. For the same compound, the TGI (HCT-15 colon) was over 100 µM, the TGI (HCC-2998 colon) was over 100 µM and the TGI (COLO 205 colon) was over 100 µM. It also gave a TGI (UO-31 renal) of over 100 µM, a TGI (RXF 393 renal) of over 100 µM and a TGI (SK-MEL-2 melanoma) of over 100 µM. The TGI (OVCAR-4 ovarian) was over 100 µM, the TGI (SK-OV-3 ovarian) was over 100 µM and the TGI (NCI-H522 lung) was over 100 µM. It also gave a TGI (SR leukemia) of over 100 µM, a TGI (SNB-75 CNS) of over 100 µM and a TGI (KM12 colon) of over 100 µM. For the same compound, the TGI (SNB-19 CNS) was over 100 µM, the TGI (MALME-3M melanoma) was over 100 µM and the TGI (PC-3 prostate) was over 100 µM. It also gave a TGI (786-0 renal) of over 100 µM, a TGI (MDA-MB-435) of over 100 µM and a TGI (DU-145 prostate) of over 100 µM. It also gave a TGI (HT29 colon) of over 100 µM, a TGI (UACC-257 melanoma) of over 100 µM and a TGI (OVCAR-8 ovarian) of over 100 µM. It also gave a TGI (T-47D breast) of over 100 µM, a TGI (MDA-N) of over 100 µM and a TGI (NCI-H226 lung) of over 100 µM. For the same compound, the TGI (A498 renal) was over 100 µM, the TGI (MDA-MB-231 breast) was over 100 µM and the TGI (SF-268 CNS) was over 100 µM. It also gave a TGI (MCF7 breast) of over 100 µM, a TGI (SK-MEL-28 melanoma) of over 100 µM and a TGI (K-562 leukemia) of over 100 µM. For the same compound, the TGI (LOX IMVI melanoma) was over 100 µM, the TGI (CCRF-CEM leukemia) was over 100 µM and the TGI (HL-60(TB) leukemia) was over 100 µM. It also gave a TGI (TK-10 renal) of over 100 µM, a TGI (U251 CNS) of over 100 µM and a TGI (SK-MEL-5 melanoma) of over 100 µM.
